Measurements as given in patent EP0093376B2, “1-Sulfo-2-azetidinone derivatives, their production and use” (Takeda Chemical Industries, Ltd., priority 1982, dated 1983).
Values after ≈ are worked out from the molar mass of the structure shown.

Tests used:
Format in all cases: cell-based
[1] = tested on: Klebsiella pneumoniae TN 1711; experiment: MIC by agar dilution method (Experimental Example); conditions: TN1711; test organism (2) Klebsiella pneumoniae TN 1711; Trypticase soy agar; inoculum about 10^8 CFU/ml; overnight culture at 37°C; complete growth inhibition
Experimental: (§1) The MIC of each test compound was determined by the agar dilution method. Thus, a stock aqueous solution of each test compound is serially diluted and the resultant dilution series are put in petri dishes. Then, 9.0 ml of Trypticase soy agar per dish is added and mixed. Each of the agar plates is smeared with a suspension of the test organism (about 10^8 CFU/ml). After overnight culture at 37°C, the minimum concentration of the test compound that caused a complete growth inhibition of the organism is taken as the MIC (minimal inhibitory concentration) value.
(§2) • (1) Enterobacter cloacae IFO 12937 • (2) Klebsiella pneumoniae TN 1711

[2] = tested on: Enterobacter cloacae IFO 12937; experiment: MIC by agar dilution method (Experimental Example); conditions: IFO12937; test organism (1) Enterobacter cloacae IFO 12937; Trypticase soy agar; inoculum about 10^8 CFU/ml; overnight culture at 37°C; complete growth inhibition
Experimental: as §1, §2

[3] = tested on: Klebsiella pneumoniae TN 1711; experiment: MIC by agar dilution method (Test Example); conditions: TN1711; test organism (2) Klebsiella pneumoniae TN 1711; Trypticase soy agar; inoculum about 10^6 CFU/ml; overnight at 37°C
Experimental: (§3) The MIC values for the test compounds were determined by the agar dilution method. Thus, 1.0 ml of each serially diluted aqueous solution of each test compound was poured into a petri dish. Then, 9.0 ml of Trypticase soy agar was added and mixed with the aqueous solution. A suspension of the test organism (about 10^6 CFU/ml) was smeared onto the mixed agar plate and incubated overnight at 37°C.
(§4) • (1) Enterobacter cloacae IFO 12937 • (2) Klebsiella pneumoniae TN 1711 • (3) Pseudomonas aeruginosa GN 3407

[4] = tested on: Pseudomonas aeruginosa GN 3407; experiment: MIC by agar dilution method (Test Example); conditions: GN3407; test organism (3) Pseudomonas aeruginosa GN 3407; Trypticase soy agar; inoculum about 10^6 CFU/ml; overnight at 37°C
Experimental: as §3, §4

[5] = tested on: Enterobacter cloacae IFO 12937; experiment: MIC by agar dilution method (Test Example); conditions: IFO12937; test organism (1) Enterobacter cloacae IFO 12937; Trypticase soy agar; inoculum about 10^6 CFU/ml; overnight at 37°C
Experimental: as §3, §4

| Structure (SMILES) | MIC [1] | MIC [2] | MIC [3] | MIC [4] | MIC [5] |
| --- | --- | --- | --- | --- | --- |
| COC[C@@H]1[C@H](NC(=O)/C(=N\OC(C)(C)C(=O)O)c2csc(N)n2)C(=O)N1S(=O)(=O)O (relative stereo) [cis-3-[2-(2-Amino-4-thiazolyl)-2-(Z)-(1-carboxy-1-methylethoxyimino)acetamido]-4-methoxymethyl-2-azetidinone-1-sulfonic acid] | 0.2 mg/L (≈ 0.43 µM) | 1.56 mg/L (≈ 3.35 µM) | – | – | – |
| CCC[C@H]1[C@H](NC(=O)/C(=N\OC(C)(C)C(=O)O)c2csc(N)n2)C(=O)N1S(=O)(=O)O [Sodium [3S,4S]-3-[(2-(2-aminothiazol-4-yl)-2-(Z)-(1-carboxy-1-methylethoxyimino)acetamido]-4-propyl-2-azetidinone-1-sulfonate] | 0.78 mg/L | 12.5 mg/L | – | – | – |
| COC[C@@H]1[C@H](NC(=O)/C(=N\OCC(=O)O)c2csc(N)n2)C(=O)N1S(=O)(=O)O (relative stereo) [cis-3-[2-(2-Amino-4-thiazolyl)-2-(Z)-carboxy-methoxyiminoacetamido]-4-methoxymethyl-2-azetidinone-1-sulfonic acid] | 0.1 mg/L (≈ 0.229 µM) | 3.13 mg/L (≈ 7.16 µM) | – | – | – |
| CC(C)(O/N=C(\C(=O)N[C@@H]1C(=O)N(S(=O)(=O)O)[C@@H]1CS(C)(=O)=O)c1csc(N)n1)C(=O)O (relative stereo) [cis-3-[2-(2-Amino-4-thiazolyl)-2-(Z)-(1-carboxy-1-methylethoxyimino)acetamido]-4-methylsulfonyl-methyl-2-azetidinone-1-sulfonic acid] | 1.56 mg/L (≈ 3.04 µM) | 12.5 mg/L (≈ 24.3 µM) | – | – | – |
| CC(C)(O/N=C(\C(=O)N[C@@H]1C(=O)N(S(=O)(=O)O)[C@@H]1CNC(N)=O)c1csc(N)n1)C(=O)O (relative stereo) [cis-3-[2-(2-Amino-4-thiazolyl)-2-(Z)-(1-carboxy-1-methylethoxyimino)acetamido]-4-ureidomethyl-2-azetidinone-1-sulfonic acid] | 3.13 mg/L (≈ 6.34 µM) | 12.5 mg/L (≈ 25.3 µM) | – | – | – |
| CC(C)(O/N=C(\C(=O)N[C@@H]1C(=O)N(S(=O)(=O)O)[C@@H]1COC(N)=O)c1csc(N)n1)C(=O)O [Example 4'] | – | – | 0.1 mg/L (≈ 0.202 µM) | 6.25 mg/L (≈ 12.6 µM) | 0.39 mg/L (≈ 0.789 µM) |

Continued, values first:

| MIC [1] | MIC [2] | MIC [3] | MIC [4] | MIC [5] | Structure (SMILES) |
| --- | --- | --- | --- | --- | --- |
| 3.13 mg/L | 12.5 mg/L | – | – | – | CC(=O)CC1C(NC(=O)C(=NOC(C)(C)C(=O)O)c2csc(N)n2)C(=O)N1S(=O)(=O)O (centres unmarked) [Sodium [3S,4S]-3-[(2-(2-aminothiazol-4-yl)-2-(Z)-(1-carboxy-1-methylethoxyimino]acetamido]-4-(2-oxopropyl)-2-azetidinone-1-sulfonate] |
| 3.13 mg/L | 3.13 mg/L | – | – | – | CON=C(C(=O)NC1C(=O)N(S(=O)(=O)O)C1CC(C)=O)c1csc(N)n1 (stereo not drawn) [Sodium [3S,4S]-cis-3-[(2-(2-aminothiazol-4-yl)-2-(Z)-methoxyimino]acetamido]-4-(2-oxopropyl)-2-azetidinone-1-sulfonate] |
| 0.78 mg/L (≈ 1.57 µM) | 3.13 mg/L (≈ 6.29 µM) | – | – | – | C[S+]([O-])C[C@@H]1[C@H](NC(=O)/C(=N\OC(C)(C)C(=O)O)c2csc(N)n2)C(=O)N1S(=O)(=O)O (relative stereo) [cis-3-[2-(2-Amino-4-thiazolyl)-2-(Z)-(1-carboxy-1-methylethoxyimino]acetamido]-4-methylsulfinyl-methyl-2-azetidinone-1-sulfonic acid] |
| – | – | 0.05 mg/L (≈ 0.107 µM) | 1.56 mg/L (≈ 3.34 µM) | 0.05 mg/L (≈ 0.107 µM) | NC(=O)OC[C@@H]1[C@H](NC(=O)/C(=N\OCC(=O)O)c2csc(N)n2)C(=O)N1S(=O)(=O)O [Example 2'] |
| 3.13 mg/L (≈ 6.17 µM) | 6.25 mg/L (≈ 12.3 µM) | – | – | – | COC(=O)CC[C@@H]1[C@H](NC(=O)/C(=N\OC(C)(C)C(=O)O)c2csc(N)n2)C(=O)N1S(=O)(=O)O (relative stereo) [cis-3-[2-(2-Amino-4-thiazolyl)-2-(Z)-(1-carboxy-1-methylethoxyamino)acetamido]-4-(2-methoxy-carbonylethyl)-2-azetidinone-1-sulfonic acid] |
| 12.5 mg/L | 3.13 mg/L | – | – | – | CC(C)(O/N=C(\C(=O)N[C@@H]1C(=O)N(S(=O)(=O)[O-])[C@@H]1C[n+]1ccccc1)c1csc(N)n1)C(=O)O (relative stereo) [Monosodium cis-3-[2-(2-amino-4-thiazolyl)-2-(Z)-(1-carboxylato-1-methylethoxyimino)acetamido]-4-pyridiniomethyl-2-azetidinone-1-sulfonate] |
| 0.39 mg/L | 1.56 mg/L | – | – | – | CO/N=C(\C(=O)N[C@@H]1C(=O)N(S(=O)(=O)O)[C@@H]1C(N)=O)c1csc(N)n1 (relative stereo) [Sodium cis-3-[2-(2-amino-4-thiazolyl)-2-(Z)-methoxyiminoacetamido]-4-carbamoyl-2-azetidinone-1-sulfonate] |
| – | 6.25 mg/L | – | – | – | CO/N=C(\C(=O)N[C@@H]1C(=O)N(S(=O)(=O)O)[C@H]1CC(C)=O)c1csc(N)n1 [Sodium [3S, 4S]-trans-3-[2-(2-aminothiazol-4-yl]-2-(Z)-methoxyimino]acetamido]-4-(2-oxopropyl)-2-azetidinone-1-sulfonate] |
